Read-outs that look alike come from different tables or passages of the source.
Columns and labels:
Acute toxicity (LD50) = details: rat, in vivo, rats, read-out: LD₅₀
Method: The compound for use as an active ingredient in the therapeutic composition for corneal impairment according to this invention is a very safe substance with an extremely low toxic potential and, as such, can be used with advantage for the purposes of this invention. [e.g. the LD₅₀ values of L-ascorbyl DL-α-tocopheryl phosphate potassium (hereinafter referred to briefly as EPC-K) ≧ 5 g/kg p.o. (rats) and ≧ 100 mg/kg i.v. (rats)].

[1] = system: UV-induced corneal lesions in rabbits; test: Inhibitory effect on UV-induced corneal lesions in rabbits (fluorescein penetration into cornea, anterior fluorophotometer); assay type: in vivo, White rabbits; details: rabbit cornea
Method: The inhibitory effect of the present compound on UV-induced corneal lesions in rabbits was evaluated. Test substance: L-Ascorbyl DL-α-tocopheryl phosphate potassium (abbreviation: EPC-K). Method: White rabbits were used; 4 animals assigned to the present compound treatment group and 3 assigned to a control group (the nictitating membrane was excised beforehand).
For UV irradiation, Hoya-Schott's HLS200U (dominant wavelength 365 nm) equipped with a 200 W mercury-xenon lamp as the light source was used. Ushio Electric's Unimeter UIT-101 was used for the determination of luminous energy.
One eye of each rabbit was kept open with an eye speculum and set at a distance of 43 cm from the light source so that the irradiation energy would be 0.024 J/cm². The eye was irradiated with ultraviolet light under the conditions of 0.2 mW/cm² and 2 minutes. The fellow eye was protected with an eye patch.
After UV irradiation, the vehicle (2.6% concentrated glycerin solution) was instilled in the eyes of rabbits in the control group 3 times daily and 0.1% EPC-K (dissolved in 2.6% concentrated glycerin solution) was instilled as often into the eyes of rabbits in the present compound treatment group.
The degree of rabbit corneal lesion was evaluated by the following method^1). Using fluorescein as a tracer, the fluorescence intensity of the tracer dye penetrating into the cornea within a predetermined region was measured for a quantitative assessment of the barrier function of the corneal epithelium (The corneal epithelium has a barrier function^2) to restrict penetration of any substance into the deep layer of the cornea and when an erosion or other injury occurs in the corneal epithelium, this barrier function is compromised so that the penetration of the substance into the depth of the cornea is increased). Thus, at 0, 0.5, 6, 12, 24, 48 and 72 hours after UV irradiation, fluorescein sodium was instilled into the eye and the fluorescence intensity of the fluorescein sodium that had penetrated into the cornea was measured with a Kowa anterior fluorophotometer. 1) Norihiko Yokoi et al.: Quantitative evaluation of corneal epithelial barrier function with a new fluorophotometer, Journal of the Eye, 10(8); 1357-1363, 1993 2) Klyce SD and Crosson CE: Transport processes across the rabbit corneal epithelium, a review. Curr Eye Res 4 4;427-432, 1985.

Cc1c(C)c2c(c(C)c1OP(=O)(O)OC1=C(O)[C@@H]([C@@H](O)CO)OC1=O)CCC(C)(CCCC(C)CCCC(C)CCCC(C)C)O2 (mixture of isomers) [EPC-K, L-ascorbyl DL-α-tocopheryl phosphate potassium]
LD50 (Acute toxicity (LD50); iv): ≥ 100 mg/kg
LD50 (Acute toxicity (LD50); po): ≥ 5000 mg/kg
intensity of fluorescence ([1]; 0 hours after UV irradiation, 0.1% EPC-K in 2.6% concentrated glycerin solution instilled 3 times daily, control group 457): 259
intensity of fluorescence ([1]; 0.5 hours after UV irradiation, 0.1% EPC-K instilled 3 times daily, control group 791): 447
intensity of fluorescence ([1]; 6 hours after UV irradiation, 0.1% EPC-K instilled 3 times daily, control group 899): 695
intensity of fluorescence ([1]; 12 hours after UV irradiation, 0.1% EPC-K instilled 3 times daily, control group 3813): 1038
intensity of fluorescence ([1]; 24 hours after UV irradiation, 0.1% EPC-K instilled 3 times daily, control group 3860): 875
intensity of fluorescence ([1]; 48 hours after UV irradiation, 0.1% EPC-K instilled 3 times daily, control group 870): 343
intensity of fluorescence ([1]; 72 hours after UV irradiation, 0.1% EPC-K instilled 3 times daily, control group 655): 311
